Numbered stars: 1 amine (or outer) side, 2 acyl side, 3 side chain; on linkers, the order of the positions; unused ones are H or OH. Bridge positions count the residues as written; N and C are the ends. Square brackets hold non-standard residues; d marks the D form. Peptide text beside a SMILES is read from it. * marks the point of attachment. hPhe(3-Cl-4-CF3) = N[C@@H](CCc1ccc(C(F)(F)F)c(Cl)c1)C(=O)O; X112 = O=C([C@H](CCOc1ccc(C(F)(F)F)cc1)N[*:1])[*:2]; X98 = O=C([C@H](CCOc1ccc(Cl)c(Cl)c1)N[*:1])[*:2]; X102 = O=C([C@H](CCOc1ccc(Cl)cc1)N[*:1])[*:2]; X77 = O=C(CN(CCN1CCC(F)(F)CC1)[*:1])[*:2]; NGly(CH2(3-pyridyl)) = O=C(O)CNCc1cccnc1; X69 = CN(C)C(=O)COCCN(CC(=O)[*:2])[*:1]; Gly(Nα-CH2(4-Pyr)) = O=C(O)CNCc1ccncc1; X132 = O=C(CN(CCOCC(F)(F)F)[*:1])[*:2]; X78 = O=C(CN(CCc1cccnc1)[*:1])[*:2]; NMeCha = CN[C@@H](CC1CCCCC1)C(=O)O; X81 = O=C(CN(CCOCC(F)F)[*:1])[*:2]; NMeChg = CN[C@H](C(=O)O)C1CCCCC1; X12 = O=C(CN(CC1COC1)[*:1])[*:2]; X68 = COCCOCCN(CC(=O)[*:2])[*:1]; NMeD = CN[C@@H](CC(=O)O)C(=O)O; Gly(N-CH2CH2OH) = O=C(O)CNCCO; NMeL = CN[C@@H](CC(C)C)C(=O)O; NMeA = CN[C@@H](C)C(=O)O; Piperidide = C1CCN(*)CC1; Ac5c = NC1(C(=O)O)CCCC1; Sar = CNCC(=O)O
Target: protein-protein interaction between Kras and SOS1 (biotin-tagged human Kras loaded with GDP, His-tagged human SOS1) (Homo sapiens (Human), UniProt P01116, G12D)
Experiment: Protein-protein interaction inhibition between Kras and SOS1 (KrasG12D-SOS PPI) using AlphaScreen;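 note: kras produced in E. coli, Ni-coupled donor beads and streptavidin acceptor beads, excitation 680 nm with emission detected at 520–620 nm via singlet oxygen transfer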
Assay type: biochemical
Details: AlphaScreen; biotin-tagged human Kras loaded with GDP, His-tagged human SOS1; read-out: KRAS G12D-SOS PPI IC50

Row | SMILES | IC50 [nM]
1 | CC[C@H](C)[C@@H]1NC(=O)[C@H](CC(C)C)N(C)C(=O)C[C@@H](C(=O)N2CCCCC2)N(C)C(=O)[C@H](C2CCCCC2)N(C)C(=O)C2(CCCC2)NC(=O)CN(CCN2CCC(F)(F)CC2)C(=O)[C@H](CCc2ccc(C(F)(F)F)c(Cl)c2)NC(=O)CN(C)C(=O)[C@H](CC2CCCCC2)N(C)C(=O)CN(C)C(=O)CN(C)C1=O [Compound 2022] ([NMeL]I[Sar][Sar][NMeCha][Sar][hPhe(3-Cl-4-CF3)][X77][Ac5c][NMeChg][NMeD]-Piperidide; lactam N-11) | 3.8
2 | CC[C@H](C)[C@@H]1NC(=O)[C@H](CC(C)C)N(C)C(=O)C[C@@H](C(=O)N2CCCCC2)N(C)C(=O)[C@H](C2CCCCC2)N(C)C(=O)C2(CCCC2)NC(=O)CN(CCOCC(F)(F)F)C(=O)[C@H](CCc2ccc(C(F)(F)F)c(Cl)c2)NC(=O)CN(C)C(=O)[C@H](CC2CCCCC2)N(C)C(=O)CN(C)C(=O)CN(C)C1=O [Compound 2024] ([NMeL]I[Sar][Sar][NMeCha][Sar][hPhe(3-Cl-4-CF3)][X132][Ac5c][NMeChg][NMeD]-Piperidide; lactam N-11 (inferred); C-terminus assumed) | 4.3
3 | CC[C@H](C)[C@@H]1NC(=O)[C@H](CC(C)C)N(C)C(=O)C[C@@H](C(=O)N2CCCCC2)N(C)C(=O)[C@H](C2CCCCC2)N(C)C(=O)C2(CCCC2)NC(=O)CN(CCOCCOC)C(=O)[C@H](CCc2ccc(C(F)(F)F)c(Cl)c2)NC(=O)CN(C)C(=O)[C@H](CC2CCCCC2)N(C)C(=O)CN(C)C(=O)CN(C)C1=O [Compound 2025] ([NMeL]I[Sar][Sar][NMeCha][Sar][hPhe(3-Cl-4-CF3)][X68][Ac5c][NMeChg][NMeD]-Piperidide; lactam N-11 (inferred); C-terminus assumed) | 1.4
4 | CC[C@H](C)[C@@H]1NC(=O)[C@H](CC(C)C)N(C)C(=O)C[C@@H](C(=O)N2CCCCC2)N(C)C(=O)[C@H](C2CCCCC2)N(C)C(=O)C2(CCCC2)NC(=O)CN(Cc2cccnc2)C(=O)[C@H](CCc2ccc(C(F)(F)F)c(Cl)c2)NC(=O)CN(C)C(=O)[C@H](CC2CCCCC2)N(C)C(=O)CN(C)C(=O)CN(C)C1=O [Compound 2026] ([NMeL]I[Sar][Sar][NMeCha][Sar][hPhe(3-Cl-4-CF3)][NGly(CH2(3-pyridyl))][Ac5c][NMeChg][NMeD]-Piperidide; lactam N-11 (inferred); C-terminus assumed) | 1.3
5 | CC[C@H](C)[C@@H]1NC(=O)[C@H](CC(C)C)N(C)C(=O)C[C@@H](C(=O)N2CCCCC2)N(C)C(=O)[C@H](C2CCCCC2)N(C)C(=O)C2(CCCC2)NC(=O)CN(CC2COC2)C(=O)[C@H](CCc2ccc(C(F)(F)F)c(Cl)c2)NC(=O)CN(C)C(=O)[C@H](CC2CCCCC2)N(C)C(=O)CN(C)C(=O)CN(C)C1=O [Compound 2031] ([NMeL]I[Sar][Sar][NMeCha][Sar][hPhe(3-Cl-4-CF3)][X12][Ac5c][NMeChg][NMeD]-Piperidide; lactam N-11 (inferred); C-terminus assumed) | 0.82
6 | CC[C@H](C)[C@@H]1NC(=O)[C@H](CC(C)C)N(C)C(=O)C[C@@H](C(=O)N2CCCCC2)N(C)C(=O)[C@H](C2CCCCC2)N(C)C(=O)C2(CCCC2)NC(=O)CN(CCc2cccnc2)C(=O)[C@H](CCc2ccc(C(F)(F)F)c(Cl)c2)NC(=O)CN(C)C(=O)[C@H](CC2CCCCC2)N(C)C(=O)CN(C)C(=O)CN(C)C1=O [Compound 2032] ([NMeL]I[Sar][Sar][NMeCha][Sar][hPhe(3-Cl-4-CF3)][X78][Ac5c][NMeChg][NMeD]-Piperidide; lactam N-11 (inferred); C-terminus assumed) | 1.2
7 | CC[C@H](C)[C@@H]1NC(=O)[C@H](CC(C)C)N(C)C(=O)C[C@@H](C(=O)N2CCCCC2)N(C)C(=O)[C@H](C2CCCCC2)N(C)C(=O)C2(CCCC2)NC(=O)CN(Cc2ccncc2)C(=O)[C@H](CCc2ccc(C(F)(F)F)c(Cl)c2)NC(=O)CN(C)C(=O)[C@H](CC2CCCCC2)N(C)C(=O)CN(C)C(=O)CN(C)C1=O [Compound 2033] ([NMeL]I[Sar][Sar][NMeCha][Sar][hPhe(3-Cl-4-CF3)][Gly(Nα-CH2(4-Pyr))][Ac5c][NMeChg][NMeD]-Piperidide; lactam N-11 (inferred); C-terminus assumed) | 0.65
8 | CC[C@H](C)[C@@H]1NC(=O)[C@H](CC(C)C)N(C)C(=O)C[C@@H](C(=O)N2CCCCC2)N(C)C(=O)[C@H](C2CCCCC2)N(C)C(=O)C2(CCCC2)NC(=O)CN(CCOCC(F)F)C(=O)[C@H](CCc2ccc(C(F)(F)F)c(Cl)c2)NC(=O)CN(C)C(=O)[C@H](CC2CCCCC2)N(C)C(=O)CN(C)C(=O)CN(C)C1=O [Compound 2036] ([NMeL]I[Sar][Sar][NMeCha][Sar][hPhe(3-Cl-4-CF3)][X81][Ac5c][NMeChg][NMeD]-Piperidide; lactam N-11 (inferred); C-terminus assumed) | 1.1
9 | CC[C@H](C)[C@@H]1NC(=O)[C@H](CC(C)C)N(C)C(=O)C[C@@H](C(=O)N2CCCCC2)N(C)C(=O)[C@H](C2CCCCC2)N(C)C(=O)C2(CCCC2)NC(=O)CN(CCO)C(=O)[C@H](CCc2ccc(C(F)(F)F)c(Cl)c2)NC(=O)CN(C)C(=O)[C@H](CC2CCCCC2)N(C)C(=O)CN(C)C(=O)CN(C)C1=O [Compound 2037, (11S,17S,26S,29S,33S,36S)-11-[2-[3-chloro-4-(trifluoromethyl)phenyl]ethyl]-36-cyclohexyl-17-(cyclohexylmethyl)-9-(2-hydroxyethyl)-29-isobutyl-15,18,21,24,30,34,37-heptamethyl-26-[(1S)-1-methylpropyl]-33-(piperidine-1-carbonyl)-6,9,12,15,18,21,24,27,30,34,37-undecazaspiro[4.33]octatriacontane-7,10,13,16,19,22,25,28,31,35,38-undecone] ([NMeL]I[Sar][Sar][NMeCha][Sar][hPhe(3-Cl-4-CF3)][Gly(N-CH2CH2OH)][Ac5c][NMeChg][NMeD]-Piperidide; lactam N-11) | 0.58
10 | CC[C@H](C)[C@@H]1NC(=O)[C@H](CC(C)C)N(C)C(=O)C[C@@H](C(=O)N2CCCCC2)N(C)C(=O)[C@H](C2CCCCC2)N(C)C(=O)C2(CCCC2)NC(=O)CN(CCOCC(=O)N(C)C)C(=O)[C@H](CCc2ccc(C(F)(F)F)c(Cl)c2)NC(=O)CN(C)C(=O)[C@H](CC2CCCCC2)N(C)C(=O)CN(C)C(=O)CN(C)C1=O [Compound 2038, 2-[2-[(11S,17S,26S,29S,33S,36S)-11-[2-[3-chloro-4-(Trifluoromethyl)phenyl]ethyl]-36-cyclohexyl-17-(cyclohexylmethyl)-29-isobutyl-15,18,21,24,30,34,37-heptamethyl-26-[(1S)-1-methylpropyl]-7,10,13,16,19,22,25,28,31,35,38-undecaoxo-33-(piperidine-1-carbonyl)-6,9,12,15,18,21,24,27,30,34,37-undecazaspiro[4.33]octatriacontan-9-yl]ethoxy]-N,N-dimethyl-acetamide] ([NMeL]I[Sar][Sar][NMeCha][Sar][hPhe(3-Cl-4-CF3)][X69][Ac5c][NMeChg][NMeD]-Piperidide; lactam N-11) | 8.3
11 | CC[C@H](C)[C@@H]1NC(=O)[C@H](C)N(C)C(=O)C[C@@H](C(=O)N2CCCCC2)N(C)C(=O)[C@H](C2CCCCC2)N(C)C(=O)C2(CCCC2)NC(=O)[C@@H]2CCCN2C(=O)[C@H](CCOc2ccc(Cl)c(Cl)c2)NC(=O)CN(C)C(=O)[C@H](CC2CCCCC2)N(C)C(=O)CN(C)C(=O)CN(C)C1=O [Compound 2039, (3S,9S,18S,21S,25S,28S,34S)-28-cyclohexyl-9-(cyclohexylmethyl)-3-[2-(3,4-dichlorophenoxy)ethyl]-7,10,13,16,21,22,26,29-octamethyl-18-[(1S)-1-methylpropyl]-25-(piperidine-1-carbonyl)spiro[1,4,7,10,13,16,19,22,26,29,32-undecazabicyclo[32.3.0]heptatriacontane-31,1′-cyclopentane]-2,5,8,11,14,17,20,23,27,30,33-undecone] ([NMeA]I[Sar][Sar][NMeCha][Sar][X98]P[Ac5c][NMeChg][NMeD]-Piperidide; lactam N-11) | 18
12 | CC[C@H](C)[C@@H]1NC(=O)[C@H](C)N(C)C(=O)C[C@@H](C(=O)N2CCCCC2)N(C)C(=O)[C@H](C2CCCCC2)N(C)C(=O)C2(CCCC2)NC(=O)[C@@H]2CCCN2C(=O)[C@H](CCOc2ccc(Cl)cc2)NC(=O)CN(C)C(=O)[C@H](CC2CCCCC2)N(C)C(=O)CN(C)C(=O)CN(C)C1=O [Compound 2040, (3S,9S,18S,21S,25S,28S,34S)-3-[2-(4-chlorophenoxy)ethyl]-28-cyclohexyl-9-(cyclohexylmethyl)-7,10,13,16,21,22,26,29-octamethyl-18-[(1S)-1-methylpropyl]-25-(piperidine-1-carbonyl)spiro[1,4,7,10,13,16,19,22,26,29,32-undecazabicyclo[32.3.0]heptatriacontane-31,1-cyclopentane]-2,5,8,11,14,17,20,23,27,30,33-undecone] ([NMeA]I[Sar][Sar][NMeCha][Sar][X102]P[Ac5c][NMeChg][NMeD]-Piperidide; lactam N-11) | 150
13 | CC[C@H](C)[C@@H]1NC(=O)[C@H](C)N(C)C(=O)C[C@@H](C(=O)N2CCCCC2)N(C)C(=O)[C@H](C2CCCCC2)N(C)C(=O)C2(CCCC2)NC(=O)[C@@H]2CCCN2C(=O)[C@H](CCOc2ccc(C(F)(F)F)cc2)NC(=O)CN(C)C(=O)[C@H](CC2CCCCC2)N(C)C(=O)CN(C)C(=O)CN(C)C1=O [Compound 2041, (3S,9S,18S,21S,25S,28S,34S)-28-cyclohexyl-9-(cyclohexylmethyl)-7,10,13,16,21,22,26,29-octamethyl-18-[(1S)-1-methylpropyl]-25-(piperidine-1-carbonyl)-3-[2-[4-(trifluoromethyl)phenoxy]ethyl]spiro[1,4,7,10,13,16,19,22,26,29,32-undecazabicyclo[32.3.0]heptatriacontane-31,1′-cyclopentane]-2,5,8,11,14,17,20,23,27,30,33-undecone] ([NMeA]I[Sar][Sar][NMeCha][Sar][X112]P[Ac5c][NMeChg][NMeD]-Piperidide; lactam N-11) | 110

From US20240148821A1, “PHARMACEUTICAL USE OF CYCLIC PEPTIDE COMPOUND” (CHUGAI SEIYAKU KABUSHIKI KAISHA, priority 2021, published 2024)
